One compound from patent US6958355B2, “Materials and methods for the treatment of diabetes, hyperlipidemia, hypercholesterolemia, and atherosclerosis” (ARYx Therapeutics, Inc., priority 2000, dated 2005) can be followed below.

The subject of this assay is NIDDM KK-A^y male mice. Nature of the assay: Activity on serum glucose and insulin levels in NIDDM KK-A^y male mice. Format: in vivo. The settings on record: percent reduction relative to pre-treatment values, 10 mg/kg orally, twice a day, 5 consecutive days, blood sampled 90 minutes after the last dose. From the text: Representative compounds were chosen and evaluated for activity on serum glucose and insulin levels in non-insulin dependent diabetic mellitus (NIDDM) KK-A^y male mice. Post-treatment data for each group were transferred to a percentage of pretreatment values and unpaired Student's t test was used for comparison between vehicle and test substance treated groups. […] The results are presented in Table XXI and in FIGS. 19 and 20.
Activity in NIDDM KK-A^y male mice. Non-insulin dependent diabetic mellitus male mice, weighing 50+/−5 g (9-10 weeks of age) were used. […] The test compounds 105, 115, and 155, and the positive control compound troglitazone were suspended in a 1% carboxymethylcellulose preparation and were given orally at a dose of 10 mg/kg, twice a day, for 5 consecutive days. Blood sampling was performed before the first dose and then 90 minutes after the last dose. Serum glucose and insulin levels were measured.

With `Cc1c(C)c2c(c(C)c1O)CCC(C)(COc1ccc(CC3SC(=O)NC3=O)cc1)O2` (centres unmarked) [Troglitazone, troglitazone], the “Serum Glucose (%)” value was determined as 35% and the “Serum Insulin (%)” value was determined as 15%.
